Reference: patent publication US20260258050A1, “IMMUNOMODULATOR” (HITGEN INC., priority 2023, published 2026)

Key:
[1] = biological target: T1, Human IL-17A (Homo sapiens, UniProt Q16552); assay: IL-17A enzyme-linked immunosorbent assay (competitive ELISA, IL-17A/IL-17Ra receptor-ligand binding); set-up: purchased Sino Biological Inc. 12047-H07B; details: human IL-17A coated plate, human IL-17Ra, read-out: IC50, inhibitory activity of compounds on human IL-17A
T1 sequence (Q16552 20-155 limits assumed): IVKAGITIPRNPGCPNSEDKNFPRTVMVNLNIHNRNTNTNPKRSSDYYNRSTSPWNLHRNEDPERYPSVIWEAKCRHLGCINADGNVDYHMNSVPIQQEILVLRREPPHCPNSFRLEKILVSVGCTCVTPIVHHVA
Summary of the method: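 Competitive ELISA with plates coated with human IL-17A at 0.2 μg/ml, blocked with 5% skim milk. Compound pre-incubated with IL-17A 10 min at 25 °C, then 16 nM IL-17Ra stock added for 30 min. Bound receptor detected by anti-Fc HRP/TMB, A450. IC50 from variable-slope fit of blank-corrected residual activity.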

[2] = biological target: T1, Human IL-17A; assay: Inhibition of human IL-17A protein-induced GROα/CXCL1 production in HT-29 cells; assay type: cell-based; set-up: purchased R&D 317-ILB; host or cells: added exogenously to HT-29 cells; details: 30 ng/mL human IL-17A protein, 48 h, GROα in supernatant by ELISA kit, read-out: Inhibitory IC50 of compounds on HT-29 cell GROα/CXCL1
Summary of the method: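 Compound dilutions were preincubated 1 h at 37 °C with 30 ng/mL human IL-17A, then added to HT-29 cells (5×10^4/well) for 48 h at 37 °C. GROα in supernatant quantified by ELISA; IC50 for inhibition of its production. Positive control: IL-17A antibody at […].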

Row | SMILES | IC50 [1] [nM] | IC50 [2] [nM]
1 | CCn1nccc1C(=O)N[C@H](C(=O)Nc1ccc2c(c1)COCCc1n[nH]c(C)c1-2)C(C1CC1)C1CC1 [compound 3] | ≤ 50 | ≤ 100
2 | Cc1[nH]nc2c1-c1ccc(NC(=O)[C@@H](NC(=O)c3ccnn3C3CC3)C(C3CC3)C3CC3)cc1COCC2 [compound 6] | ≤ 50 | 100 to 500
3 | Cc1[nH]nc2c1-c1cc(F)c(NC(=O)[C@@H](NC(=O)c3ccnn3C(C)C)C(C3CC3)C3CC3)cc1CN(C)C(=O)C2 [compound 132] | ≤ 50 | ≤ 100
4 | CCn1nccc1C(=O)N[C@H](C(=O)Nc1cc2c(cc1F)-c1c(n[nH]c1C)CC(=O)N(CC(F)F)C2)C(C1CC1)C1CC1 [compound 145] | ≤ 50 | ≤ 100
5 | Cc1[nH]nc2c1-c1cc(F)c(NC(=O)[C@@H](NC(=O)c3ccnn3C(C)C)C(C3CC3)C3CC3)cc1CN(CC(C)(F)F)C(=O)C2 [compound 148] | ≤ 50 | ≤ 100
6 | CCn1nccc1C(=O)N[C@H](C(=O)Nc1cc2c(cc1F)-c1c(n[nH]c1C)CC(=O)N(CC(C)(F)F)C2)C(C1CC1)C1CC1 [compound 149] | ≤ 50 | ≤ 100
7 | Cc1[nH]nc2c1-c1cc(F)c(NC(=O)[C@@H](NC(=O)c3ccnn3C(C)C)C(C3CC3)C3CC3)cc1CN(C(C)C)C(=O)C2 [compound 150] | ≤ 50 | ≤ 100
8 | CCn1nccc1C(=O)N[C@H](C(=O)Nc1cc2c(cc1F)-c1c(n[nH]c1C)CC(=O)N(C(C)C)C2)C(C1CC1)C1CC1 [compound 151] | ≤ 50 | ≤ 100
9 | Cc1[nH]nc2c1-c1cc(F)c(NC(=O)[C@@H](NC(=O)c3ccnn3C(C)C)C(C3CC3)C3CC3)cc1CN(CC(F)(F)F)C(=O)C2 [compound 152] | ≤ 50 | ≤ 100
10 | Cc1[nH]nc2c1-c1cc(F)c(NC(=O)[C@@H](NC(=O)c3ccnn3C(C)C)C(C3CC3)C3CC3)cc1CN(CC(F)F)CC2 [compound 158] | ≤ 50 | ≤ 100
11 | CCn1nccc1C(=O)N[C@H](C(=O)Nc1cc2c(cc1F)-c1c(n[nH]c1C)CCN(CC(F)F)C2)C(C1CC1)C1CC1 [compound 159] | ≤ 50 | ≤ 100
12 | CCn1nccc1C(=O)N[C@H](C(=O)Nc1cc2c(cc1F)-c1c(n[nH]c1C)CCN(CC(C)(F)F)C2)C(C1CC1)C1CC1 [compound 161] | ≤ 50 | ≤ 100
13 | Cc1[nH]nc2c1-c1cc(F)c(NC(=O)[C@@H](NC(=O)c3ccnn3C(C)C)C(C3CC3)C3CC3)cc1CN(C1CC1)CC2 [compound 165] | ≤ 50 | ≤ 100

The next lines start with the values.

Row | IC50 [1] [nM] | IC50 [2] [nM] | SMILES
14 | ≤ 50 | ≤ 100 | Cc1[nH]nc2c1-c1cnc(NC(=O)[C@@H](NC(=O)c3ccnn3C[C@@H]3C[C@H]3F)C(C3CC3)C3CC3)cc1COCC2 [compound 125]
15 | ≤ 50 | 100 to 500 | CCn1nccc1C(=O)N[C@H](C(=O)Nc1cc2c(cc1F)-c1c(n[nH]c1C)CC(=O)N(C)C2)C(C1CC1)C1CC1 [compound 133]
16 | ≤ 50 | ≤ 100 | Cc1[nH]nc2c1-c1cc(F)c(NC(=O)[C@@H](NC(=O)c3ccnn3C(C)C)C(C3CC3)C3CC3)cc1CN(C1CC1)C(=O)C2 [compound 136]
17 | ≤ 50 | ≤ 100 | CCN1Cc2cc(NC(=O)[C@@H](NC(=O)c3ccnn3C(C)C)C(C3CC3)C3CC3)c(F)cc2-c2c(n[nH]c2C)CC1=O [compound 142]
18 | ≤ 50 | ≤ 100 | CCN1Cc2cc(NC(=O)[C@@H](NC(=O)c3ccnn3CC)C(C3CC3)C3CC3)c(F)cc2-c2c(n[nH]c2C)CC1=O [compound 143]
19 | ≤ 50 | ≤ 100 | Cc1[nH]nc2c1-c1cc(F)c(NC(=O)[C@@H](NC(=O)c3ccnn3C(C)C)C(C3CC3)C3CC3)cc1CN(CC(F)F)C(=O)C2 [compound 144]
20 | ≤ 50 | ≤ 100 | Cc1[nH]nc2c1-c1cc(F)c(NC(=O)[C@@H](NC(=O)c3ccnn3C(C)C)C(C3CC3)C3CC3)cc1CN(CC1CC1)C(=O)C2 [compound 153]
21 | ≤ 50 | 100 to 500 | CCN1CCc2n[nH]c(C)c2-c2cc(F)c(NC(=O)[C@@H](NC(=O)c3ccnn3C(C)C)C(C3CC3)C3CC3)cc2C1 [compound 156]
22 | ≤ 50 | ≤ 100 | Cc1[nH]nc2c1-c1cc(F)c(NC(=O)[C@@H](NC(=O)c3ccnn3C(C)C)C(C3CC3)C3CC3)cc1CN(CC(C)(F)F)CC2 [compound 160]
23 | ≤ 50 | ≤ 100 | Cc1[nH]nc2c1-c1cc(F)c(NC(=O)[C@@H](NC(=O)c3ccnn3C(C)C)C(C3CC3)C3CC3)cc1CN(CC(F)(F)F)CC2 [compound 164]
